# Experimental data from patent publication US5750530A, “Pharmaceutical diketopiperazine compounds” (Xenova Limited, priority 1994, dated 1998).
# Where a name gives a salt, the structure may show the parent alone.
# Biological target: PAI-1 (Homo sapiens, UniProt P05121)
# Test: biochemical
# Assay type: biochemical
# Settings: for IC50: PAI chromogenic substrate assay
# Protocol: The present compounds have been tested in a PAI functional assay. In this assay, a compound is incubated with PAI-1 prior to addition to the tPA assay system. Inhibition of PAI-1 results in the production of plasmin from plasminogen. In turn, plasmin cleaves the chromogenic substrate S2251 (Kabi Vitrum) producing pNA (p-nitroaniline) which is detected spectrophotometrically at 405 nm (K. Nilsson et al, Fibrinolysis (1987) 1, 163-168).
# The present compounds were tested in a PAI chromogenic substrate assay. In the assay (K. Nilsson, Fibrinolysis (1987) 1, 163-168) each compound was incubated with PAI-1 prior to addition to the tPA assay system. […] In turn, the plasmin cleaved the chromogenic substrate S2251 (Kabi-Vitrum) producing pNA (p-nitroaniline) which was detected spectrophotometrically at 405 nm.
# The degrees of inhibition observed in the chromogenic substrate assay at various concentrations, or the IC50 values, for each compound are presented in Table 1.
# PAI-1, sequence (P05121 24-402): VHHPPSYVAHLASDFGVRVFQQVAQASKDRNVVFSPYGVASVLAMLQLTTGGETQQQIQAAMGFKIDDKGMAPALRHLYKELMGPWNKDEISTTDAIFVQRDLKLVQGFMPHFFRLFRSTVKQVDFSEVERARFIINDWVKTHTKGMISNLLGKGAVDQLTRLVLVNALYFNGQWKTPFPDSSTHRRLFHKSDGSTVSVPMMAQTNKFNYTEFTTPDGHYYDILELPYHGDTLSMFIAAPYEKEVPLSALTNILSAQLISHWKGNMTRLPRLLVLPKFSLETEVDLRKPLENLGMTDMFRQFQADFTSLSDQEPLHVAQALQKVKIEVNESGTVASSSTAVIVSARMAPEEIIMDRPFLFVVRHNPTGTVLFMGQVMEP
Structure (SMILES),% Inhibition (5 μm) [%],% Inhibition (20 μm) [%],IC50 [µM],% Inhibition (100 μm) [%]
"CN(C)CCSc1ccc(/C=c2\[nH]c(=O)/c(=C/c3ccccn3)[nH]c2=O)s1 [Compound 5471.HCl, (3Z,6Z)-6-(5-(2-Dimethylaminoethylthio)-2-thienyl)methylene-3-(2-pyridylmethylene)-2,5-piperazinedione]",1,2,,
"Cc1ccc(/C=c2\[nH]c(=O)/c(=C/c3ccc(SCCN(C)C)cc3)[nH]c2=O)cc1 [Compound 5463, (3Z,6Z)-3-(4-(2-Dimethylaminoethylthio)benzylidene)-6-(4-methylbenzylidene)-2,5-piperazinedione]",76,78,4,
"CN(C)CCSc1ccc(/C=c2\[nH]c(=O)/c(=C/c3cccc([N+](=O)[O-])c3)[nH]c2=O)cc1 [Compound 5422.HCl, (3Z,6Z)-6-(4-(2-Dimethylaminoethylthio)benzylidene)-3-(3-nitrobenzylidene)-2,5-piperazinedione]",5,28,,
"CN(C)CCSc1ccc(/C=c2\[nH]c(=O)/c(=C/c3cn(C)c4ccccc34)[nH]c2=O)s1 [Compound 5473.HCl, (3Z,6Z)-6-(5-(2-Dimethylaminoethylthio)-2-thienyl)methylene-3-(1-methyl-3-indolyl)methylene-2,5-piperazinedione]",10,54,20,
"COc1ccc2ccccc2c1/C=c1\[nH]c(=O)/c(=C/c2ccc(SCCN(C)C)s2)[nH]c1=O [Compound 5499.HCl, (3Z,6Z)-3-(5-(2-Dimethylaminoethylthio)-2-thienyl)methylene-6-(2-methoxy-1-naphthyl)methylene-2,5-piperazinedione]",0,54,18.4,
"CN(C)CCSc1ccc(/C=c2\[nH]c(=O)/c(=C/c3ccc4ccccc4c3)[nH]c2=O)s1 [Compound 5286, (3Z,6Z)-3-(5-(2-Dimethylaminoethylthio)-2-thienyl)methylene-6-(2-naphthyl)methylene-2,5-piperazinedione]",,87,8,98
"CN(C)CCSc1ccc(/C=c2\[nH]c(=O)/c(=C/c3cccc(C(F)(F)F)c3)[nH]c2=O)cc1 [Compound 5423.HCl, (3Z,6Z)-6-(4-(2-Dimethylaminoethylthio)benzylidene)-3-(3-trifluoromethylbenzylidene)-2,5-piperazinedione]",2,35,20,
"COc1cccc(/C=c2\[nH]c(=O)/c(=C/c3ccc(SCCN(C)C)cc3)[nH]c2=O)c1 [Compound 5438, (3Z,6Z)-6-(4-(2-Dimethylaminoethylthio)benzylidene)-3-(3-methoxybenzylidene)-2,5-piperazinedione]",,18,,
"CN(C)CCSc1ccc(/C=c2\[nH]c(=O)/c(=C/c3cn(C)c4ccccc34)[nH]c2=O)cc1 [Compound 5497, (3Z,6Z)-6-(4-(2-Dimethylaminoethylthio)benzylidene)-3-(1-methyl-3-indolyl)methylene-2,5-piperazinedione]",17,72,11,
"Cc1cccc(/C=c2\[nH]c(=O)/c(=C/c3ccc(SCCN(C)C)cc3)[nH]c2=O)c1 [Compound 5439.HCl, (3Z,6Z)-6-(4-(2-Dimethylaminoethylthio)benzylidene)-3-(3-methylbenzylidene)-2,5-piperazinedione]",6,35,17,
"CN(C)CCSc1ccc(/C=c2\[nH]c(=O)/c(=C/c3ccc(C(F)(F)F)cc3)[nH]c2=O)cc1 [Compound 5294, (3Z,6Z)-3-(4-(2-Dimethylaminoethylthio)benzylidene)-6-(4-trifluoromethylbenzylidene)-2,5-piperazinedione]",,,2.5,

# The next lines start with the values.
% Inhibition (5 μm) [%],% Inhibition (20 μm) [%],IC50 [µM],% Inhibition (100 μm) [%],Structure (SMILES)
11,34,,,"CN(C)CCSc1ccc(/C=c2\[nH]c(=O)/c(=C/c3cccc(C#N)c3)[nH]c2=O)cc1 [Compound 5476.HCl, (3Z,6Z)-3-(3-Cyanobenzylidene)-6-(4-(2-dimethylaminoethylthio)benzylidene)-2,5-piperazinedione]"
,,20,,"CN(C)CCSc1ccc(/C=c2\[nH]c(=O)/c(=C/c3cccc(C(F)(F)F)c3)[nH]c2=O)s1 [Compound 5315, (3Z,6Z)-3-(5-(2-Dimethylaminoethylthio)-2-thienyl)methylene-6-(3-trifluoromethylbenzylidene)-2,5-piperazinedione]"
,,20,,"CN(C)CCSc1ccc(/C=c2\[nH]c(=O)/c(=C/c3ccccc3Br)[nH]c2=O)s1 [Compound 5313.HCl, (3Z,6Z)-6-(2-Bromobenzylidene)-3-(5-(2-dimethylaminoethylthio)-2-thienyl)methylene-2,5-piperazinedione]"
18,44,16.5,,"CN(C)CCSc1ccc(/C=c2\[nH]c(=O)/c(=C/c3ccc(Cl)cc3)[nH]c2=O)cc1 [Compound 5437.HCl, (3Z,6Z)-3-(4-Chlorobenzylidene)-6-(4-(2-dimethylaminoethylthio)benzylidene)-2,5-piperazinedione]"
,10,,,"CN(C)CCSc1ccc(/C=c2\[nH]c(=O)/c(=C/c3cccc([N+](=O)[O-])c3)[nH]c2=O)s1 [Compound 5316, (3Z,6Z)-3-(5-(2-Dimethylaminoethylthio)-2-thienyl)methylene-6-(3-nitrobenzylidene)-2,5-piperazinedione]"
8,45,15.7,,"CN(C)CCSc1ccc(/C=c2\[nH]c(=O)/c(=C/c3ccc(N(C)C)cc3)[nH]c2=O)cc1 [Compound 5424.HCl, (3Z,6Z)-3-(4-Dimethylaminobenzylidene)-6-(4-(2-dimethylaminoethylthio)benzylidene)-2,5-piperazinedione]"
5,46,15,,"Cc1cccc(/C=c2\[nH]c(=O)/c(=C/c3ccc(SCCN(C)C)cc3)[nH]c2=O)c1 [Compound 5439, (3Z,6Z)-6-(4-(2-Dimethylaminoethylthio)benzylidene)-3-(3-methylbenzylidene)-2,5-piperazinedione]"
3,21,,,"CN(C)CCSc1ccc(/C=c2\[nH]c(=O)/c(=C/c3cccc([N+](=O)[O-])c3)[nH]c2=O)cc1 [Compound 5422, (3Z,6Z)-6-(4-(2-Dimethylaminoethylthio)benzylidene)-3-(3-nitrobenzylidene)-2,5-piperazinedione]"
9,55,12.6,,"CN(C)CCSc1ccc(/C=c2\[nH]c(=O)/c(=C/c3ccc(Br)cc3)[nH]c2=O)s1 [Compound 5489.HCl, (3Z,6Z)-6-(4-Bromobenzylidene)-3-(5-(2-dimethylaminoethylthio)-2-thienyl)methylene-2,5-piperazinedione]"
7,54,7.2,,"CN(C)CCSc1ccc(/C=c2\[nH]c(=O)/c(=C/c3cccc(OCc4ccccc4)c3)[nH]c2=O)s1 [Compound 5487.HCl, (3Z,6Z)-6-(3-Benzyloxybenzylidene)-3-(5-(2-dimethylaminoethylthio)-2-thienyl)methylene-2,5-piperazinedione]"
,77,14,98,"CN(C)CCSc1ccc(/C=c2\[nH]c(=O)/c(=C/c3ccc4ccccc4c3)[nH]c2=O)s1 [Compound 5286.HCl, (3Z,6Z)-3-(5-(2-Dimethylaminoethylthio)-2-thienyl)methylene-6-(2-naphthyl)methylene-2,5-piperazinedione]"
2,61,11.8,,"COc1ccc2ccccc2c1/C=c1\[nH]c(=O)/c(=C/c2ccc(SCCN(C)C)s2)[nH]c1=O [Compound 5499, (3Z,6Z)-3-(5-(2-Dimethylaminoethylthio)-2-thienyl)methylene-6-(2-methoxy-1-naphthyl)methylene-2,5-piperazinedione]"
61,60,4.5,,"CN(C)CCSc1ccc(/C=c2\[nH]c(=O)/c(=C/c3ccccc3)[nH]c2=O)cc1[N+](=O)[O-] [Compound 5400, (3Z,6Z)-6-Benzylidene-3-(4-(2-dimethylaminoethylthio)-3-nitrobenzylidene)-2,5-piperazinedione]"
17,61,11.2,,"COc1ccc(/C=c2\[nH]c(=O)/c(=C/c3ccc(SCCN(C)C)s3)[nH]c2=O)cc1 [Compound 5464.HCl, (3Z,6Z)-3-(5-(2-Dimethylaminoethylthio)-2-thienyl)methylene-6-(4-methoxybenzylidene)-2,5-piperazinedione]"
